Where “and” joins values, the source holds several entries; their conditions need not be identical. Equal values may be shown once. Read-outs that look alike come from different tables or passages of the source.
What was measured:
Test in all cases: SafetyScreen87 panel
[1] = target: T1, Potassium Channel hERG (human)- [3H] Dofetilide (Homo sapiens, UniProt Q12809); conditions: 1.0E-06 M, read-out: % Inhibition of Control Specific Binding (1st, 2nd, Mean)
T1 construct: Eurofins Discovery (Cerep, France) SafetyScreen87 panel
Protocol: (§1) The possibility of KDS12025 on kinase off-target, the KINOMEscan panel of scanEDGE assay was conducted in DiscoverX (CA, USA) using a site-directed competition binding with the test compounds. The assay results are given in Supplementary Table 4 and experimental information is available on the DiscoverX web page (www.discoverx.com). Moreover, the Delta SafetyScreen87 panel assay was conducted in Eurofins Discovery (Cerep, France). The assay results are given in Supplementary Table 5 and experimental information is available on the DiscoverX web page (https://www.eurofinsdiscoveryservices.com).

[2] = target: T2, adenosine transporter (antagonist radioligand) (Cavia porcellus, UniProt H0V4R7)
T2 construct: Eurofins Discovery (Cerep, France) SafetyScreen87 panel
Protocol: as §1

[3] = target: T3, beta 2 (h) (antagonist radioligand) (Homo sapiens, UniProt P07550)
T3 construct: purchased DiscoverX KINOMEscan scanEDGE; Eurofins Cerep SafetyScreen87
Protocol: as §1

[4] = test system: BZD (central) (agonist radioligand); conditions: 1.0E-06 M, read-out: % Inhibition of Control Specific Binding (1st, 2nd, Mean)
Protocol: as §1

[5] = target: T4, alpha 1D (h) (antagonist radioligand) (Homo sapiens, UniProt P25100); conditions: 1.0E-06 M, read-out: % Inhibition of Control Specific Binding (1st, 2nd, Mean)
T4 construct: purchased DiscoverX KINOMEscan scanEDGE; Eurofins Cerep SafetyScreen87
T4 sequence (P25100 whole entry): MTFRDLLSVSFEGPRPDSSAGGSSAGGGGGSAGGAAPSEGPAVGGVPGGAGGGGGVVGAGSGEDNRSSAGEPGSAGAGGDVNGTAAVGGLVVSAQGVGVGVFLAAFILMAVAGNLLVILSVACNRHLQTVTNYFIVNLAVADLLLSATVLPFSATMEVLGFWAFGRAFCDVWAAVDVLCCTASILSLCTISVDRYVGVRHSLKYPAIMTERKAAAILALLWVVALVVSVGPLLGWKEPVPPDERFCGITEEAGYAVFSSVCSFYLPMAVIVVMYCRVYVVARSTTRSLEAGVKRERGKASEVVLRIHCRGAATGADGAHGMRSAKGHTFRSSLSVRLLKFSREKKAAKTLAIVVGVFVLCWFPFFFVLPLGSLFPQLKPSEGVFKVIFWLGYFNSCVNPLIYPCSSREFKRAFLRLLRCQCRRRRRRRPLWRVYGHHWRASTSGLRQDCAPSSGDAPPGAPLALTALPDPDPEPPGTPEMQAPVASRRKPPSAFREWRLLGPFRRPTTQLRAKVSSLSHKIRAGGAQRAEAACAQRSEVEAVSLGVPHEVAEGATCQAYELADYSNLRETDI
Protocol: as §1

[6] = target: T5, M4 (h) (antagonist radioligand) (Homo sapiens, UniProt P08173); conditions: 1.0E-06 M; mean; read-out: % Inhibition of Control Specific Binding (1st, 2nd, Mean)
T5 construct: purchased DiscoverX KINOMEscan scanEDGE; Eurofins Cerep SafetyScreen87
Protocol: as §1

[7] = target: T6, CysLT1 (LTD4) (h) (agonist radioligand) (Homo sapiens, UniProt Q9Y271); conditions: read-out: % Inhibition of Control Specific Binding (1st, 2nd, Mean); 1.0E-06 M
T6 construct: purchased DiscoverX KINOMEscan scanEDGE; Eurofins Cerep SafetyScreen87
Protocol: as §1

[8] = target: T7, 5-HT1B (h) (antagonist radioligand) (Homo sapiens, UniProt P28222); conditions: 1.0E-06 M; mean; read-out: % Inhibition of Control Specific Binding (1st, 2nd, Mean)
T7 construct: purchased DiscoverX KINOMEscan scanEDGE; Eurofins Cerep SafetyScreen87
Protocol: as §1

[9] = target: T8, 5-HT3 (h) (antagonist radioligand) (Homo sapiens, UniProt P46098); conditions: 1.0E-06 M; read-out: % Inhibition of Control Specific Binding (1st, 2nd, Mean)
T8 construct: purchased DiscoverX KINOMEscan scanEDGE; Eurofins Cerep SafetyScreen87
Protocol: as §1

[10] = target: T9, A2A (h) (agonist radioligand) (Homo sapiens, UniProt P29274); conditions: 1.0E-06 M, read-out: % Inhibition of Control Specific Binding (1st, 2nd, Mean)
T9 construct: purchased DiscoverX KINOMEscan scanEDGE; Eurofins Cerep SafetyScreen87
T9 sequence (P29274 whole entry): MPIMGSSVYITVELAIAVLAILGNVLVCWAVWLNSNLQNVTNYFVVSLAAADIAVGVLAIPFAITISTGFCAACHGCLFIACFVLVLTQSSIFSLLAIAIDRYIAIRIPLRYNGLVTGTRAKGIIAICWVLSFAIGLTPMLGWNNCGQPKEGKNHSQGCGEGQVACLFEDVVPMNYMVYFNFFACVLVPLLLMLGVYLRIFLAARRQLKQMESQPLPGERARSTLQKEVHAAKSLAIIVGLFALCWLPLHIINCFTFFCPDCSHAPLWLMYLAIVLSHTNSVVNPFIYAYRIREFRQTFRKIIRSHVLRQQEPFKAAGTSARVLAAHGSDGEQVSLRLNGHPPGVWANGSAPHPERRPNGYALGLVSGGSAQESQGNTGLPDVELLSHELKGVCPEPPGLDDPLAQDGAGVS
Protocol: as §1

[11] = target: T10, CCR1 (h) (agonist radioligand) (Homo sapiens, UniProt P32246)
T10 construct: purchased DiscoverX KINOMEscan scanEDGE; Eurofins Cerep SafetyScreen87
Protocol: as §1

[12] = target: T11, D2S (h) (agonist radioligand) (Homo sapiens, UniProt P14416); conditions: 1.0E-06 M, read-out: % Inhibition of Control Specific Binding (1st, 2nd, Mean)
T11 construct: purchased DiscoverX KINOMEscan scanEDGE; Eurofins Cerep SafetyScreen87
T11 sequence (P14416 1-414 isoform P14416-2): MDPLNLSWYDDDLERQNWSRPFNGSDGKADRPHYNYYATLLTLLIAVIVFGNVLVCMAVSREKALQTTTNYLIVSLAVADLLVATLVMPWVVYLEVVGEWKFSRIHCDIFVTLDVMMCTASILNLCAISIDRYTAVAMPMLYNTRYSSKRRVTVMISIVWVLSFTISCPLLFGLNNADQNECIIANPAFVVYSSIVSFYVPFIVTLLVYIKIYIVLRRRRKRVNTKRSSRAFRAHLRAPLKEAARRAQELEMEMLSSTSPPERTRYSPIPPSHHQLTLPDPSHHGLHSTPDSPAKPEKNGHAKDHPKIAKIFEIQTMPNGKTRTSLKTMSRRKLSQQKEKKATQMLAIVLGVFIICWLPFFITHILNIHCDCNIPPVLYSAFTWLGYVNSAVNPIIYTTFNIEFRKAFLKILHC
Protocol: as §1

[13] = target: T12, alpha 1A (h) (antagonist radioligand) (Homo sapiens, UniProt P35348); conditions: 1.0E-06 M, read-out: % Inhibition of Control Specific Binding (1st, 2nd, Mean)
T12 construct: purchased DiscoverX KINOMEscan scanEDGE; Eurofins Cerep SafetyScreen87
T12 sequence (P35348 whole entry): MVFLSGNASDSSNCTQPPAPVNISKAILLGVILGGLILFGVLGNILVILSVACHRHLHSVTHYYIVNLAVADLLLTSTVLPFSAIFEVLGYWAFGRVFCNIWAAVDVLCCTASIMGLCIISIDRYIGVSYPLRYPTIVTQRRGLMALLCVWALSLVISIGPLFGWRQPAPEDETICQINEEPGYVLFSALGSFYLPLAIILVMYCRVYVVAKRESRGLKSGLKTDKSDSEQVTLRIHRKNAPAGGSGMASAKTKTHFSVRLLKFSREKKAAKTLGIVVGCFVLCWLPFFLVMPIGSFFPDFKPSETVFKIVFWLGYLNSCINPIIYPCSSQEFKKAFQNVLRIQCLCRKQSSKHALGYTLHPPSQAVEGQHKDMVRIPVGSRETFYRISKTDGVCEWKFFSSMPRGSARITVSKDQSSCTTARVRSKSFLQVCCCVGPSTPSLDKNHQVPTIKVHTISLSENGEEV
Protocol: as §1

[14] = target: T13, Estrogen ER alpha (h) (agonist radioligand) (Homo sapiens, UniProt P03372); conditions: 1.0E-06 M; mean; read-out: % Inhibition of Control Specific Binding (1st, 2nd, Mean)
T13 construct: purchased DiscoverX KINOMEscan scanEDGE; Eurofins Cerep SafetyScreen87
Protocol: as §1

[15] = target: T14, NK1 (h) (agonist radioligand) (Homo sapiens, UniProt P25103); conditions: 1.0E-06 M; mean; read-out: % Inhibition of Control Specific Binding (1st, 2nd, Mean)
T14 construct: purchased DiscoverX KINOMEscan scanEDGE; Eurofins Cerep SafetyScreen87
Protocol: as §1

[16] = target: T15, B2 (h) (agonist radioligand) (Homo sapiens, UniProt P30411)
T15 construct: purchased DiscoverX KINOMEscan scanEDGE; Eurofins Cerep SafetyScreen87
T15 sequence (P30411 whole entry): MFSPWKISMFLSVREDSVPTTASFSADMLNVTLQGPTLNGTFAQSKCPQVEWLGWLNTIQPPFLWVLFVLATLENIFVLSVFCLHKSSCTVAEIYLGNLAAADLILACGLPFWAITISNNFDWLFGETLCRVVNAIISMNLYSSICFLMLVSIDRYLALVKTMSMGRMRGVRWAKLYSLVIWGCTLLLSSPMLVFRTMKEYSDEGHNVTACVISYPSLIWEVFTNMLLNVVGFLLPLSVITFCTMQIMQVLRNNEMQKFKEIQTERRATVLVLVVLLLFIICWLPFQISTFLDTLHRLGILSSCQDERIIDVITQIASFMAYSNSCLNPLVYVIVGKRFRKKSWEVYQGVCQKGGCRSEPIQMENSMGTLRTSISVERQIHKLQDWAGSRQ
Protocol: as §1

[17] = target: T16, D2L (h) (antagonist radioligand) (Homo sapiens, UniProt P14416); conditions: 1.0E-06 M, read-out: % Inhibition of Control Specific Binding (1st, 2nd, Mean)
T16 construct: purchased DiscoverX KINOMEscan scanEDGE; Eurofins Cerep SafetyScreen87
T16 sequence (P14416 whole entry): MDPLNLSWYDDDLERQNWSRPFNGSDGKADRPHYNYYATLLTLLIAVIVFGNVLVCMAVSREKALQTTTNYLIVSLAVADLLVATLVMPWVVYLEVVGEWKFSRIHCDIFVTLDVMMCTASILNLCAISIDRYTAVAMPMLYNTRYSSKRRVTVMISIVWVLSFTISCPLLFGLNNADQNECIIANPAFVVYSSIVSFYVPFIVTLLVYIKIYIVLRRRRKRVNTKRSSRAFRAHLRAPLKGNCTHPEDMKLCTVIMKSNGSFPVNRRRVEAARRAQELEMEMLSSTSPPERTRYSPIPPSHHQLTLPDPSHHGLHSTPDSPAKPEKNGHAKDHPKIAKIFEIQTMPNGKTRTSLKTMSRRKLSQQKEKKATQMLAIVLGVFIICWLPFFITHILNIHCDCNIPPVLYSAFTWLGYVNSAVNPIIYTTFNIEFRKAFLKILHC
Protocol: as §1

[18] = target: T17, alpha 2B (h) (antagonist radioligand) (Homo sapiens, UniProt P18089); conditions: 1.0E-06 M, read-out: % Inhibition of Control Specific Binding (1st, 2nd, Mean)
T17 construct: purchased DiscoverX KINOMEscan scanEDGE; Eurofins Cerep SafetyScreen87
T17 sequence (P18089 whole entry): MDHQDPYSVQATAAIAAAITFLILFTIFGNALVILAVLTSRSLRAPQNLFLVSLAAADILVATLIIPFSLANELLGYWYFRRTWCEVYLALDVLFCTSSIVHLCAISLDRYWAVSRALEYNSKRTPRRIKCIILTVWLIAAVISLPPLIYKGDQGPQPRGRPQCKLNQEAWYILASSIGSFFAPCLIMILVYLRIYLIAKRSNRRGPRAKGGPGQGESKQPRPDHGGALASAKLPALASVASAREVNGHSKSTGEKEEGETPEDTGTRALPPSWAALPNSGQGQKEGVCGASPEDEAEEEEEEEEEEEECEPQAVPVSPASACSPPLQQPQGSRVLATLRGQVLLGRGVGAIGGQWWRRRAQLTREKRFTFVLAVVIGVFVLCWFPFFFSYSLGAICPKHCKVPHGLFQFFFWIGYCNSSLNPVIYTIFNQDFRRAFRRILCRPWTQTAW
Protocol: as §1

[19] = target: T18, alpha 1B (h) (antagonist radioligand) (Homo sapiens, UniProt P35368); conditions: 1.0E-06 M, read-out: % Inhibition of Control Specific Binding (1st, 2nd, Mean)
T18 construct: purchased DiscoverX KINOMEscan scanEDGE; Eurofins Cerep SafetyScreen87
T18 sequence (P35368 whole entry): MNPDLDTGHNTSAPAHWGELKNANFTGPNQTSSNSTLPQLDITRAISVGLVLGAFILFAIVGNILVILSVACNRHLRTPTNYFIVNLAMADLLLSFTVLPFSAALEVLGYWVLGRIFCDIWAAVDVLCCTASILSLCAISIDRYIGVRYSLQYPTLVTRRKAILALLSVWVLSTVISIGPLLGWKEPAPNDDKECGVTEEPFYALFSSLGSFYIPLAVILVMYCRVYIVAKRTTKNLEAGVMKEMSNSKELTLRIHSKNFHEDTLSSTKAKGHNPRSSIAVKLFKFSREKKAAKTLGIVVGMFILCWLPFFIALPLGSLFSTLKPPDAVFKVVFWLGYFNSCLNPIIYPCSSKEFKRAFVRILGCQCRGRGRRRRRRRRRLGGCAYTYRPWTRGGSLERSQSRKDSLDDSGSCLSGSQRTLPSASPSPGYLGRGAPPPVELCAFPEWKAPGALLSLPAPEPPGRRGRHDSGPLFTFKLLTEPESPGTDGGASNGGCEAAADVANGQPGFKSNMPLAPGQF
Protocol: as §1

[20] = target: T19, mGluR5 (h) (agonist radioligand) (Homo sapiens, UniProt P41594); conditions: 1.0E-06 M, read-out: % Inhibition of Control Specific Binding (1st, 2nd, Mean)
T19 construct: purchased DiscoverX KINOMEscan scanEDGE; Eurofins Cerep SafetyScreen87
T19 sequence (P41594 21-1212): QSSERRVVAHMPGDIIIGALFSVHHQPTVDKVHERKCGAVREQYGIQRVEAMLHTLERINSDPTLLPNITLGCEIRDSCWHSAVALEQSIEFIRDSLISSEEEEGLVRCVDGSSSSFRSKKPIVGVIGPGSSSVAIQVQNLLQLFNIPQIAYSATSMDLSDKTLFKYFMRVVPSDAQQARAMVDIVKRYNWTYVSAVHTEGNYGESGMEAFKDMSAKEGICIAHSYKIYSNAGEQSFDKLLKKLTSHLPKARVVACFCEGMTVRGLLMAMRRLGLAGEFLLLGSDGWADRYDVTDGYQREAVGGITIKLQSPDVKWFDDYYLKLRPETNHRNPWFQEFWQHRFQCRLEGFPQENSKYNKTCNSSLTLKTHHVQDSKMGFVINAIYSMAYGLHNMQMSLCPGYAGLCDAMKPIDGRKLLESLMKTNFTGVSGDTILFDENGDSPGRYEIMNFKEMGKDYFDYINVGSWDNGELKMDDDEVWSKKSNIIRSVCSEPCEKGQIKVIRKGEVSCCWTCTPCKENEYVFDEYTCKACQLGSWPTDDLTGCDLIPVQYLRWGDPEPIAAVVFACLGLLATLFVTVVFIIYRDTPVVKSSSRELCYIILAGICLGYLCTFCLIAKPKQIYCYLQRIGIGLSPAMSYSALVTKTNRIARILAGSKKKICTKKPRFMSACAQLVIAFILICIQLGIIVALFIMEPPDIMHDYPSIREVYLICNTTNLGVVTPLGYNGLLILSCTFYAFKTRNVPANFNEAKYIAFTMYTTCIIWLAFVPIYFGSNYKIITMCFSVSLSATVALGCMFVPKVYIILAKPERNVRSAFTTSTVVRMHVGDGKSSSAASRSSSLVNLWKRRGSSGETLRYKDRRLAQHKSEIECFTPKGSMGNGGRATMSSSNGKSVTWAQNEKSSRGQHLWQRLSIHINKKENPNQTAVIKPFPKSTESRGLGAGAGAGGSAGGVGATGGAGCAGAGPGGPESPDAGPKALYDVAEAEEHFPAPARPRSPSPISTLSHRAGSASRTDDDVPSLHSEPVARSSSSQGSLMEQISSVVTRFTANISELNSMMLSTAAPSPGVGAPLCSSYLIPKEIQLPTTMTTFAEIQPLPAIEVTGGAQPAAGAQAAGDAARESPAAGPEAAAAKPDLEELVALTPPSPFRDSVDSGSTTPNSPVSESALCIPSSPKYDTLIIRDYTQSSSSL
Protocol: as §1

[21] = test system: KV channel (antagonist radioligand); conditions: 1.0E-06 M, read-out: % Inhibition of Control Specific Binding (1st, 2nd, Mean)
Protocol: as §1

[22] = target: T20, PR (h) (agonist radioligand) (Homo sapiens, UniProt P06401); conditions: read-out: % Inhibition of Control Specific Binding (1st, 2nd, Mean); 1.0E-06 M
T20 construct: purchased DiscoverX KINOMEscan scanEDGE; Eurofins Cerep SafetyScreen87
Protocol: as §1

[23] = target: T21, M3 (h) (antagonist radioligand) (Homo sapiens, UniProt P20309); conditions: 1.0E-06 M; mean; read-out: % Inhibition of Control Specific Binding (1st, 2nd, Mean)
T21 construct: purchased DiscoverX KINOMEscan scanEDGE; Eurofins Cerep SafetyScreen87
Protocol: as §1

[24] = target: T22, MAO-A (antagonist radioligand) (Rattus norvegicus, UniProt P21396); conditions: 1.0E-06 M; mean; read-out: % Inhibition of Control Specific Binding (1st, 2nd, Mean)
T22 construct: purchased DiscoverX KINOMEscan scanEDGE; Eurofins Cerep SafetyScreen87
Protocol: as §1

[25] = target: T23, PAF (h) (agonist radioligand) (Homo sapiens, UniProt P25105); conditions: 1.0E-06 M; read-out: % Inhibition of Control Specific Binding (1st, 2nd, Mean)
T23 construct: purchased DiscoverX KINOMEscan scanEDGE; Eurofins Cerep SafetyScreen87
Protocol: as §1

[26] = target: T24, norepinephrine transporter (h) (antagonist radioligand) (Homo sapiens, UniProt P23975); conditions: 1.0E-06 M, read-out: % Inhibition of Control Specific Binding (1st, 2nd, Mean)
T24 construct: Eurofins Discovery (Cerep, France) SafetyScreen87 panel
Protocol: as §1

[27] = target: T25, CCK1 (CCKA) (h) (agonist radioligand) (Homo sapiens, UniProt P32238); conditions: 1.0E-06 M; read-out: % Inhibition of Control Specific Binding (1st, 2nd, Mean)
T25 construct: purchased DiscoverX KINOMEscan scanEDGE; Eurofins Cerep SafetyScreen87
Protocol: as §1

[28] = target: T26, 5-HT2B (h) (agonist radioligand) (Homo sapiens, UniProt P41595); conditions: 1.0E-06 M; mean; read-out: % Inhibition of Control Specific Binding (1st, 2nd, Mean)
T26 construct: purchased DiscoverX KINOMEscan scanEDGE; Eurofins Cerep SafetyScreen87
Protocol: as §1

[29] = target: T27, V1a (h) (agonist radioligand) (Homo sapiens, UniProt P37288); conditions: 1.0E-06 M; mean; read-out: % Inhibition of Control Specific Binding (1st, 2nd, Mean)
T27 construct: purchased DiscoverX KINOMEscan scanEDGE; Eurofins Cerep SafetyScreen87
Protocol: as §1

[30] = target: T28, M2 (h) (antagonist radioligand) (Homo sapiens, UniProt P08172); conditions: 1.0E-06 M; mean; read-out: % Inhibition of Control Specific Binding (1st, 2nd, Mean)
T28 construct: purchased DiscoverX KINOMEscan scanEDGE; Eurofins Cerep SafetyScreen87
Protocol: as §1

[31] = target: T29, H1 (h) (antagonist radioligand) (Homo sapiens, UniProt P35367); conditions: 1.0E-06 M; mean; read-out: % Inhibition of Control Specific Binding (1st, 2nd, Mean)
T29 construct: purchased DiscoverX KINOMEscan scanEDGE; Eurofins Cerep SafetyScreen87
Protocol: as §1

[32] = 1.0E-06 M; read-out: % Inhibition of Control Specific Binding (1st, 2nd, Mean)
[33] = read-out: % Inhibition of Control Specific Binding (1st, 2nd, Mean); 1.0E-06 M

## CNc1ccc(NCCc2ccccc2OC)cc1.Cl [KDS12025, N^1-(2-methoxyphenethyl)-N^4-methylbenzene-1,4-diamine hydrochloride salt]
[1]; mean
  activity: 68.5%
[1]
  activity: 66.8%
[2]; [32]
  activity: 101%
[2]; [33]
  activity: 98.6%
[3]; [32]
  activity: 104%
[3]; [33]
  activity: 96.8%
[4]; mean
  activity: 99.5%
[4]
  activity: 102% and 96.6%
[5]; mean
  activity: 75.8%
[5]
  activity: 75.3% and 76.3%
[6]
  activity: 102%
[7]
  activity: 87.1%
[8]
  activity: 90.8%
[9]
  activity: 91.4% and 100%
[10]; mean
  activity: 90.7%
[10]
  activity: 90.3% and 91.2%
[11]; [32]
  activity: 90.4%
[11]; [33]
  activity: 88.2%
[12]; mean
  activity: 61.9%
[12]
  activity: 64% and 59.8%
[13]; mean
  activity: 87.1%
[13]
  activity: 87.6% and 86.5%
[14]
  activity: 95.3%
[15]
  activity: 91.2%
[16]; [32]
  activity: 99.4%
[16]; [33]
  activity: 104%
[17]; mean
  activity: 84%
[17]
  activity: 74.8% and 93.2%
[18]; mean
  activity: 84.2%
[18]
  activity: 81.9% and 86.6%
[19]; mean
  activity: 65.4%
[19]
  activity: 61.4% and 69.4%
[20]; mean
  activity: 115%
[20]
  activity: 114% and 116%
[21]; mean
  activity: 96.5%
[21]
  activity: 85.3% and 108%
[22]
  activity: 104%
[23]
  activity: 85.5%
[24]
  activity: 100%
[25]
  activity: 106%
[26]; mean
  activity: 93.3%
[26]
  activity: 89.5%
[27]
  activity: 104%
[28]
  activity: 63.9%
[29]
  activity: 110%
[30]
  activity: 107%
[31]
  activity: 88.2%

— PMC12373846, “Hemoglobin as a pseudoperoxidase and drug target for oxidative stress-related diseases” (Signal Transduction and Targeted Therapy, 2025)
